The values below come from patent US9232796B2, “Herbicidal compositions comprising 4-amino-3-chloro-5-fluoro-6-(4-chloro-2-fluoro-3-methoxyphenyl) pyridine-2-carboxylic acid or a derivative thereof and acetyl-CoA carboxylase (ACCase) inhibitors” (DOW AGROSCIENCES LLC, priority 2012, dated 2016).

The subject of one experiment is ECHOR. The experiment is described as follows: Example II in-water applied, greenhouse, transplanted paddy rice weeds. Type of experiment: in vivo, Echinochloa oryzoides (Ard.) Fritsch. The procedure: Weed seeds or nutlets of the desired test plant species were planted in puddled soil (mud) prepared by mixing a shredded, non-sterilized mineral soil (50.5 percent silt, 25.5 percent clay, and 24 percent sand, with a pH of about 7.6 and an organic matter content of about 2.9 percent) and water at a 1:1 volumetric ratio. The prepared mud was dispensed in 365 mL aliquots into 16-ounce (oz.) non-perforated plastic pots with a surface area of 86.59 square centimeters (cm^2) leaving a headspace of 3 centimeters (cm) in each pot. Mud was allowed to dry overnight prior to planting or transplanting. Rice seeds were planted in Sun Gro MetroMix® 306 planting mixture, which typically has a pH of 6.0 to 6.8 and an organic matter content of about 30 percent, in plastic plug trays. Seedlings at the second or third leaf stage of growth were transplanted into 860 mL of mud contained in 32-oz. non-perforated plastic pots with a surface area of 86.59 cm^2 4 days prior to herbicide application. The paddy was created by filling the headspace of the pots with 2.5 to 3 cm of water. […] The plants were grown for 4-22 days in a greenhouse with an approximate 14 hr. photoperiod which was maintained at about 29° C. during the day and 26° C. during the night. Nutrients were added as Osmocote® (19:6:12, N:P:K+minor nutrients) at 2 g per 16-oz. pot and 4 g per 32-oz. pot. Water was added on a regular basis to maintain the paddy flood, and supplemental lighting was provided with overhead metal halide 1000-Watt lamps as necessary. The plants were employed for testing when they reached the first through fourth true leaf stage.
Treatments consisted of the acid or esters of 4-amino-3-chloro-5-fluoro-6-(4-chloro-2-fluoro-3-methoxy-phenyl)pyridine-2-carboxylic acid (compound A) each formulated as an SC (suspension concentrate) and various herbicidal components alone and in combination.
For formulated compounds, a measured amount was placed in an individual 100 or 200 mL glass vial and was dissolved in a volume of 1.25% (v/v) Agri-Dex® crop oil concentrate to obtain application solutions.
(§1) Applications were made by injecting with a pipetter appropriate amounts of the application solutions, individually and sequentially, into the aqueous layer of the paddy. Control plants were treated in the same manner with the solvent blank. Applications were made so that all treated plant material received the same concentrations of acetone and crop oil concentrate.
(§2) The treated plants and control plants were placed in a greenhouse as described above and water was added as needed to maintain a paddy flood. After approximately 3 weeks the condition of the test plants as compared with that of the untreated plants was determined visually and scored on a scale of 0 to 100 percent where 0 corresponds to no injury or growth inhibition and 100 corresponds to complete kill.
(§3) Colby's equation was used to determine the herbicidal effects expected from the mixtures (Colby, S. R. 1967. Calculation of the synergistic and antagonistic response of herbicide combinations. Weeds 15:20-22.).
(§4) The following equation was used to calculate the expected activity of mixtures containing two active ingredients, A and B: Expected=A+B−(A×B/100)

A further experiment has as its system LOLMU. The experiment is described as follows: Example III postemergence foliar-applied, greenhouse, weeds common to row crops such as corn and soybeans. Type of experiment: in vivo, Lolium multiflorum Lam.
From the text: Seeds or nutlets of the desired test plant species were planted in a soil matrix prepared by mixing a loam or sandy loam soil (e.g., 28.6 percent silt, 18.8 percent clay, and 52.6 percent sand, with a pH of about 5.8 and an organic matter content of about 1.8 percent) and calcareous grit in an 80 to 20 ratio. The soil matrix was contained in plastic pots with a surface area of 84.6 square centimeters (cm^2) and a volume of 560 cubic centimeters (cm^3). When required to ensure good germination and healthy plants, a fungicide treatment and/or other chemical or physical treatment was applied. The plants were grown for 7-31 days (d) in a greenhouse with an approximate 15 hour (h) photoperiod which was maintained at about 23-29° C. during the day and 22-28° C. during the night. Nutrients (Peters Excel® 15-5-15 5-Ca 2-Mg) and water were added on a regular basis and supplemental lighting was provided with overhead metal halide 1000-Watt lamps as necessary. The plants were employed for testing when they reached the first, second, or third true leaf stage.
Treatment requirements were calculated based upon the rates being tested, the concentration of active ingredient or acid equivalent in the formulation, and a 12 mL application volume at a rate of 187 L/ha.
Treatments consisted of the acid or esters of 4-amino-3-chloro-5-fluoro-6-(4-chloro-2-fluoro-3-methoxy-phenyl)pyridine-2-carboxylic acid (Compound A), each formulated as an SC (suspension concentrate), and various herbicidal components alone and in combination.
Other herbicidal components were applied on an acid equivalent basis and included acetyl coA carboxylase (ACCase)-inhibiting herbicide (cyclohexanedione and aryloxyphenoxypropionate chemical classes) quizalofop-p-ethyl formulated as Assure® II.
All stock solutions and applications solutions were visually inspected for compound compatibility prior to application. Compound requirements are based upon a 12 mL application volume at a rate of 187 liters per hectare (L/ha). Formulated compounds were applied to the plant material with an overhead Mandel track sprayer equipped with 8002E nozzles calibrated to deliver 187 L/ha over an application area of 0.503 square meters (m^2) at a spray height of 18 to 20 inches (46 to 50 cm) above the average plant canopy height. Control plants were sprayed in the same manner with the solvent blank.
The treated plants and control plants were placed in a greenhouse as described above and watered by sub-irrigation to prevent wash-off of the test compounds. After approximately 2 weeks, the condition of the test plants as compared with that of the untreated plants was determined visually and scored on a scale of 0 to 100 percent where 0 corresponds to no injury or growth inhibition and 100 corresponds to complete kill.
as §3, §4

A further experiment concerns ECHCG. Kind of experiment: Example II in-water applied, greenhouse, transplanted paddy rice weeds. Type of experiment: in vivo, Echinochloa crusgalli (L.) Beauv. Here is the method:
as §1, §2, §3, §4

“And” between values parts separate entries of the source, which are not always exact repeats. Equal entries are not always repeated.

Turning to `C[C@@H](Oc1ccc(Oc2nc3ccc(Cl)cc3o2)cc1)C(=O)N(C)c1ccccc1F` [Metamifop, (2R)-2-[4-[(6-chloro-2-benzoxazolyl)oxy]phenoxy]-N-(2-fluorophenyl)-N-methylpropanamide], the “Visual Weed Control (%) - 21 DAA ECHOR Obs” value in the experiment on ECHOR (in-water, 50 gai/ha) was determined as 20%.
In the case of `CCCCOC(=O)[C@@H](C)Oc1ccc(Oc2ccc(C#N)cc2F)cc1` [Cyhalofop-butyl, butyl(2R)-2-[4-(4-cyano-2-fluorophenoxy)phenoxy]propanoate, reference compound], the “Visual Weed Control (%) - 25 DAA ECHOR Obs” value in the experiment on ECHOR (90 gai/ha, in-water) worked out at 0%; in the experiment with ECHOR (in-water, 90 gai/ha) it was 0%.
With `COc1c(Cl)ccc(-c2nc(C(=O)O)c(Cl)c(N)c2F)c1F` [Compound A Acid, 4-amino-3-chloro-6-(4-chloro-2-fluoro-3-methoxyphenyl)-5-fluoropyridine-2-carboxylic acid], the “Visual Weed Control (%) - 14 DAA LOLMU Obs” value with LOLMU (Compound A Acid 3.75 gae/ha) was found to be 0%; with LOLMU (Compound A Acid 7.5 gae/ha), 10%; in the experiment on LOLMU (Compound A Acid 15 gae/ha) it was 10%. Besides, the figures for the “Visual Weed Control (%) - 22 DAA ECHCG Obs” value with ECHCG (16 gae/ha) and in the experiment with ECHCG (32 gae/ha) were 20% and 25%, respectively. The “Visual Weed Control (%) - 25 DAA ECHOR Obs” value is reported as 0% in the experiment on ECHOR (8.75 gae/ha in-water), 0% in the experiment with ECHOR (17.5 gae/ha in-water) and 40% in the experiment with ECHOR (35 gae/ha in-water). In addition, the “Visual Weed Control (%) - 21 DAA ECHOR Obs” value was 0% in the experiment on ECHOR (in-water, 8.75 gae/ha); 0% in the experiment with ECHOR (in-water, 10.6 gae/ha); 15% with ECHOR (in-water, 21.2 gae/ha); 15% and 30% in the experiment with ECHOR (in-water, 35 gae/ha); 15% in the experiment with ECHOR (in-water, 42.4 gae/ha); 10% in the experiment with ECHOR (in-water, Compound A Acid 8.75 gae/ha). Moreover, the “Visual Weed Control (%) - 21 DAA ECHOR Obs” value in the experiment with ECHOR (in-water, Compound A Acid 17.5 gae/ha) came out at 15%; with ECHOR (in-water, Compound A Acid 35 gae/ha), 20%.
As to `COc1c(Cl)ccc(-c2nc(C(=O)OCc3ccccc3)c(Cl)c(N)c2F)c1F` [Compound A Benzyl Ester, benzyl ester of 4-amino-3-chloro-5-fluoro-6-(4-chloro-2-fluoro-3-methoxy-phenyl)pyridine-2-carboxylic acid], the “Visual Weed Control (%) - 14 DAA LOLMU Obs” value in the experiment with LOLMU (Compound A Benzyl Ester 3.75 gae/ha) amounted to 0%; in the experiment on LOLMU (Compound A Benzyl Ester 7.5 gae/ha), 10%; with LOLMU (Compound A Benzyl Ester 15 gae/ha), 10%. Also, the figures for the “Visual Weed Control (%) - 21 DAA ECHCG Obs” value in the experiment on ECHCG (4.38 gae/ha) and in the experiment with ECHCG (17.5 gae/ha) were 15% and 75%, respectively. Moreover, the “Visual Weed Control (%) - 22 DAA ECHCG Obs” value in the experiment on ECHCG (8 gae/ha) is given as 50%; with ECHCG (16 gae/ha), 60%; with ECHCG (32 gae/ha) it was 99%. Also, the “Visual Weed Control (%) - 21 DAA ECHOR Obs” value in the experiment on ECHOR (in-water, 4.38 gae/ha) is 0%; in the experiment on ECHOR (in-water, 8 gae/ha), 10% and 8%; in the experiment on ECHOR (in-water, 8.75 gae/ha), 10% and 15%; with ECHOR (in-water, 48 gae/ha) it was 78%; in the experiment on ECHOR (in-water, 96 gae/ha), 80%. The “Visual Weed Control (%) - 25 DAA ECHOR Obs” value is listed as 85% in the experiment with ECHOR (in-water, 8.75 gae/ha); 90% in the experiment on ECHOR (in-water, 17.5 gae/ha); 100% in the experiment with ECHOR (in-water, 35 gae/ha).
`CCC/C(=N\OCC(C)Oc1ccc(Cl)cc1)C1=C(O)CC(C2CCCSC2)CC1=O` (stereo not shown) [Profoxydim, 2-[1-[[2-(4-chlorophenoxy)propoxy]imino]butyl]-3-hydroxy-5-(tetrahydro-2H-thiopyran-3-yl)-2-cyclohexen-1-one, reference compound]: the “Visual Weed Control (%) - 22 DAA ECHCG Obs” value with ECHCG (50 gai/ha) is 30%. Moreover, in the experiment on ECHOR (in-water, 25 gai/ha), the “Visual Weed Control (%) - 21 DAA ECHOR Obs” value is 0%.
Turning to `CCOC(=O)[C@@H](C)Oc1ccc(Oc2cnc3cc(Cl)ccc3n2)cc1` [Quizalofop-p-ethyl, ethyl(2R)-2-[4-[(6-chloro-2-quinoxalinyl)oxy]phenoxy]propanoate, reference compound], the figures for the “Visual Weed Control (%) - 14 DAA LOLMU Obs” value with LOLMU (Quizalofop-p-ethyl 3.56 gae/ha) and in the experiment on LOLMU (Quizalofop-p-ethyl 7.125 gae/ha) were 0% and 60%, respectively. For the same compound, the “Visual Weed Control (%) - 21 DAA ECHCG Obs” value with ECHCG (15 gai/ha) is 50%; with ECHCG (30 gai/ha), 100%. Also, the “Visual Weed Control (%) - 21 DAA ECHOR Obs” value in the experiment on ECHOR (in-water, 15 gai/ha) is 0%; in the experiment on ECHOR (in-water, 30 gai/ha) it was 60%.
